Measurements: the supplement of paper PMC10307832

Legend:
Experiment in all cases: relative viability (nuclei count vs DMSO), 5 days (fraction); higher = more cells survive
[1] = compound: NCC(=O)Nc1ccc(-n2nc(C(F)(F)F)cc2-c2ccc3c(ccc4ccccc43)c2)cc1 + C[C@]1(O)C[C@@H](c2nc(-c3ccc4ccc(-c5ccccc5)nc4c3)c3c(N)nccn32)C1 [Linsitinib] (partner 1 µM)
Outline: (§1)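 Each reported value is a median over duplicate plates. It expresses relative viability: treated-well nuclei count divided by vehicle-well nuclei count. Lung cancer cell lines in 1536-well plates were dosed by pin tool a day after seeding, alone with one drug or with a fixed anchor-drug dose plus five library-drug doses (not always all listed) in √10 steps, and nuclei were counted after 5 days.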

[2] = compound: NCC(=O)Nc1ccc(-n2nc(C(F)(F)F)cc2-c2ccc3c(ccc4ccccc43)c2)cc1 + CC(=O)c1c(C)c2cnc(Nc3ccc(N4CCNCC4)cn3)nc2n(C2CCCC2)c1=O [Palbociclib] (partner 0.5 µM)
Outline: as §1

[3] = compound: NCC(=O)Nc1ccc(-n2nc(C(F)(F)F)cc2-c2ccc3c(ccc4ccccc43)c2)cc1 + CC1(C)CCC(c2ccc(Cl)cc2)=C(CN2CCN(c3ccc(C(=O)NS(=O)(=O)c4ccc(N[C@H](CCN5CCOCC5)CSc5ccccc5)c(S(=O)(=O)C(F)(F)F)c4)cc3)CC2)C1 [Navitoclax] (partner 0.5 µM)
Outline: as §1

[4] = compound: C1CSC2=C(C(=O)N1)SC3=C2C=C(C=C3)O [kb NB 142-70] + Cc1cc(Nc2cc(N3CCN(C)CC3)nc(Sc3ccc(NC(=O)C4CC4)cc3)n2)n[nH]1 [Tozasertib] (partner 0.1 µM)
Outline: as §1

| Cell Line | relative viability ([1]; first compound 0.02 µM) | relative viability ([1]; first compound 0.06325 µM) | relative viability ([1]; first compound 0.2 µM) | relative viability ([1]; first compound 0.6325 µM) | relative viability ([1]; first compound 2 µM) | relative viability ([2]; first compound 0.02 µM) | relative viability ([2]; first compound 0.06325 µM) | relative viability ([2]; first compound 0.2 µM) | relative viability ([2]; first compound 0.6325 µM) | relative viability ([2]; first compound 2 µM) | relative viability ([3]; first compound 0.02 µM) | relative viability ([3]; first compound 0.06325 µM) | relative viability ([3]; first compound 0.2 µM) | relative viability ([3]; first compound 0.6325 µM) | relative viability ([3]; first compound 2 µM) | relative viability ([4]; first compound 0.1 µM) | relative viability ([4]; first compound 1 µM) | relative viability ([4]; first compound 3.162 µM) |
| --- | --- | --- | --- | --- | --- | --- | --- | --- | --- | --- | --- | --- | --- | --- | --- | --- | --- | --- |
| NCI-H1915 | 1.05 | 1.07 | 1.17 | 1.09 | 1.1 | 0.535 | 0.509 | 0.517 | 0.507 | 0.541 | 0.771 | 0.804 | 0.812 | 0.767 | 0.803 | 0.445 | 0.397 | 0.276 |
| NCI-H1793 | 0.826 | 0.799 | 0.893 | 0.966 | 0.962 | 0.333 | 0.295 | 0.337 | 0.339 | 0.363 | 0.529 | 0.446 | 0.395 | 0.411 | 0.416 | 0.377 | 0.346 | 0.197 |
| NCI-H2023 | 0.805 | 0.682 | 0.712 | 0.623 | 0.707 | 0.461 | 0.414 | 0.391 | 0.345 | 0.297 | 1.05 | 1.12 | 1.01 | 1 | 1.01 | 0.367 | 0.358 | 0.276 |
| COR-L 105 | 0.918 | 0.943 | 0.98 | 1.02 | 1.15 | 0.4 | 0.399 | 0.411 | 0.413 | 0.432 | 0.817 | 0.947 | 0.649 | 0.841 | 0.703 | 0.319 | 0.287 | 0.255 |
| RERF-LC-KJ | 0.923 | 0.84 | 0.9 | 0.857 | 0.982 | 0.936 | 1.2 | 1.03 | 1.06 | 1.02 | 1.04 | 1.24 | 1.08 | 0.715 | 0.842 | 0.445 | 0.486 | 0.445 |
| LXF-289 | 0.924 | 0.995 | 0.989 | 0.985 | 0.901 | 0.591 | 0.599 | 0.59 | 0.588 | 0.628 | 0.918 | 0.977 | 0.943 | 0.954 | 0.861 | 0.173 | 0.192 | 0.181 |
| PC-14 | 1.07 | 0.917 | 1.05 | 0.936 | 0.993 | 0.494 | 0.557 | – | 0.524 | 0.46 | 1.1 | 0.979 | 1.15 | 0.917 | 1.05 | 0.569 | 0.612 | 0.531 |
| NCI-H1666 | 0.703 | 0.993 | 0.861 | 0.912 | 0.844 | 0.658 | 0.677 | 0.69 | 0.616 | 0.624 | 1.14 | 0.788 | 1.11 | 0.913 | 1.01 | 0.642 | 0.614 | 0.479 |
| NCI-H2085 | 0.964 | 0.943 | 1.03 | 1.03 | 0.932 | 0.533 | 0.477 | 0.474 | 0.469 | 0.473 | 1.06 | 1.16 | 1.28 | 1.17 | 1.08 | 0.796 | 0.825 | 0.661 |
| NCI-H1734 | 0.916 | 0.856 | 0.988 | 0.823 | 0.925 | 0.361 | 0.343 | 0.345 | 0.333 | 0.356 | 0.889 | 0.868 | 0.91 | 0.787 | 0.787 | 0.271 | 0.263 | 0.234 |
| NCI-H2126 | 0.7 | 0.745 | 0.687 | 0.664 | 0.763 | 0.369 | 0.334 | 0.369 | 0.385 | 0.327 | 0.866 | 0.865 | 0.851 | 0.876 | 0.852 | 0.805 | 0.858 | 0.823 |
| EMC-BAC-2 | 0.86 | 0.848 | 0.853 | 0.81 | 0.821 | 0.514 | 0.513 | 0.537 | 0.518 | 0.532 | 1.14 | 1.19 | 1.26 | 1.17 | 1.13 | 0.303 | 0.302 | 0.261 |
| NCI-H1993 | 0.81 | 0.767 | 0.718 | 0.843 | 0.724 | 0.658 | 0.599 | 0.808 | 0.696 | 0.706 | 0.945 | 1.06 | 1.02 | 1 | 0.956 | 0.604 | 0.648 | 0.536 |
| NCI-H520 | 1.02 | 0.904 | 1.07 | 0.91 | 1.13 | 0.222 | 0.224 | 0.24 | 0.193 | 0.258 | 0.979 | 1.17 | 1.34 | 1.05 | 1.08 | 0.45 | 0.517 | 0.37 |
| NCI-H647 | 1.23 | 1.25 | 1.12 | 1.31 | 0.915 | 0.431 | 0.385 | 0.564 | 0.294 | 0.402 | 1.02 | 1.02 | 1.23 | 1.03 | 1.01 | 0.274 | 0.332 | 0.426 |
| SK-LU-1 | 1.16 | 1.1 | 1.5 | 1.15 | 1.15 | 0.447 | 0.442 | 0.404 | 0.372 | 0.434 | 0.852 | 0.784 | 1.27 | 0.909 | 0.878 | 0.339 | 0.282 | 0.182 |
| NCI-H2009 | 1.22 | 1.18 | 1.23 | 1.21 | 1.12 | 0.236 | 0.147 | 0.265 | 0.186 | 0.272 | 1.12 | 1.15 | 1.27 | 1.11 | 1.13 | 0.75 | 0.649 | 0.48 |
| LOU-NH91 | 0.984 | 1.04 | 0.891 | 0.959 | 1.09 | 0.647 | 0.519 | 0.528 | 0.541 | 0.582 | 0.74 | 0.755 | 0.722 | 0.673 | 0.804 | 0.599 | 0.557 | 0.338 |
| NCI-H2405 | 0.91 | 1.01 | 0.923 | 0.921 | 0.971 | 0.501 | 0.519 | 0.556 | 0.515 | 0.517 | 0.848 | 1 | 0.941 | 0.913 | 0.969 | 0.785 | 0.695 | 0.652 |
| LCLC-97TM1 | 0.146 | 0.185 | – | 0.198 | 0.183 | 0.249 | 0.205 | 0.22 | 0.233 | 0.199 | 0.321 | 0.422 | – | 0.359 | 0.393 | 0.197 | 0.207 | 0.149 |
| NCI-H727 | 0.297 | 0.275 | 0.377 | 0.352 | 0.493 | 0.674 | 0.795 | 0.56 | 0.72 | 0.682 | 0.464 | 0.568 | 0.52 | 0.474 | 0.469 | 0.607 | 0.541 | 0.514 |
| H3255 | 0.916 | 0.945 | 0.958 | 0.961 | 0.919 | 0.35 | 0.313 | 0.314 | 0.322 | 0.304 | 0.481 | 0.578 | 0.594 | 0.482 | 0.457 | 0.534 | 0.785 | 0.746 |
| SK-MES-1 | 1.08 | 1.03 | 1.11 | 0.997 | 1.17 | 0.34 | 0.294 | 0.329 | 0.325 | 0.387 | 1.31 | 1.2 | 1.29 | 1.2 | 1.16 | 0.867 | 0.85 | 0.221 |
| NCI-H1437 | 0.944 | 1.05 | 1.07 | 1.1 | 1.02 | 0.331 | 0.328 | 0.3 | 0.341 | 0.307 | 1.08 | 1.12 | 1.11 | 1.12 | 1.11 | 0.407 | 0.421 | 0.446 |
| LU99A | 0.556 | 0.571 | 0.555 | 0.618 | 0.532 | 0.418 | 0.474 | 0.434 | 0.487 | 0.438 | 0.756 | 0.799 | 0.87 | 0.891 | 0.824 | 0.285 | 0.237 | 0.195 |
| HCC-827 | 0.93 | 0.972 | 1 | 0.956 | 0.958 | 0.501 | 0.545 | 0.509 | 0.486 | 0.504 | 0.992 | 1.04 | 1.06 | 1.06 | 1.01 | 0.418 | 0.429 | 0.367 |
| LK-2 | 0.686 | 0.437 | 0.483 | 0.555 | 0.522 | 0.538 | 0.831 | 0.539 | 0.675 | 0.636 | 1.02 | 0.862 | 0.961 | 0.853 | 0.757 | 0.168 | 0.167 | 0.189 |
| HCC-366 | 0.784 | 0.645 | 0.431 | 0.557 | 0.675 | 0.399 | 0.449 | 0.378 | 0.394 | 0.355 | 1.15 | 1.04 | 1.02 | 1.03 | 1.16 | 0.122 | 0.176 | 0.118 |
| BEN | 0.885 | 1.06 | 0.923 | 0.861 | 0.914 | 0.441 | 0.475 | 0.473 | 0.49 | 0.465 | 0.0632 | 0.0631 | 0.0469 | 0.0862 | 0.0668 | 0.459 | 0.455 | 0.437 |
